Laboratory results published in patent USRE39706E1, “Crystalline form of a vitamin D analogue” (Leo Pharma A/S, priority 1993, dated 2007).
Like-named read-outs stand apart in the source and are kept apart here.

Assay: Stability studies, storage at 40° C.
Format: physicochemical

| degradation after 12 months storage | degradation after 12 months storage (hydrate) | Compound |
| --- | --- | --- |
| more than 30% |  | C=C1/C(=C\C=C2/CCC[C@]3(C)[C@@H]([C@H](C)/C=C/[C@@H](O)C4CC4)CC[C@@H]23)C[C@@H](O)C[C@@H]1O [anhydrous form of calcipotriol, (1α,3β,5Z,7E,22E,24S)-24-Cyclopropyl-9,10-secochola-5,7,10(19), 22-tetraene-1,3,24-triol] |
|  | no degradation | C=C1/C(=C\C=C2/CCC[C@]3(C)[C@@H]([C@H](C)/C=C/[C@@H](O)C4CC4)CC[C@@H]23)C[C@@H](O)C[C@@H]1O [calcipotriol hydrate, calcipotriol, hydrate] |
